Structures are written as SMILES.

The values that follow come from patent US11260049B2, “TRPV4 antagonists” (GlaxoSmithKline Intellectual Property (No. 2) Limited, priority 2016, dated 2022).

human TRPV4, sequence (Q9HBA0 whole entry): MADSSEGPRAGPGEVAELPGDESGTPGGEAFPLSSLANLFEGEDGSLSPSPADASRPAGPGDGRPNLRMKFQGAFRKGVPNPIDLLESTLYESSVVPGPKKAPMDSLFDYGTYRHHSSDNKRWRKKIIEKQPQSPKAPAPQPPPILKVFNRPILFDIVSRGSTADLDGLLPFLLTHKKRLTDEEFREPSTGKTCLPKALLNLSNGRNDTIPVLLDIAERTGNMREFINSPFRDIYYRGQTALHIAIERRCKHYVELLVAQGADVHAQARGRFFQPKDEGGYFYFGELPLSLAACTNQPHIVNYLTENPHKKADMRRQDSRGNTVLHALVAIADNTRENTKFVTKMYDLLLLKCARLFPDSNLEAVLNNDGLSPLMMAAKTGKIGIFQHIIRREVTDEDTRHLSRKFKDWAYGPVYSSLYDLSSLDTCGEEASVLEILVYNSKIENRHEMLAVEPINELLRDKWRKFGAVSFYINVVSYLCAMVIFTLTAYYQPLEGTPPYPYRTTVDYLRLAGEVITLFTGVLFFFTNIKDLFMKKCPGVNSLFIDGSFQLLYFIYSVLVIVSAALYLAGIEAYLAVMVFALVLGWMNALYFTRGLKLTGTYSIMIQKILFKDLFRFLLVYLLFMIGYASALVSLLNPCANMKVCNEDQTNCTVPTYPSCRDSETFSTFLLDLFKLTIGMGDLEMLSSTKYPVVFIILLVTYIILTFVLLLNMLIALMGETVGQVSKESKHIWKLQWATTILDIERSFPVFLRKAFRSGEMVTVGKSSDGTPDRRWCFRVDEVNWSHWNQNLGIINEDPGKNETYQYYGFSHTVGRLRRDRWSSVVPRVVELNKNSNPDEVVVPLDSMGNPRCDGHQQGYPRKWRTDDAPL

In one assay the target is human TRPV4 (Homo sapiens (Human), UniProt Q9HBA0). The assay can be described thus: FLIPR assay for hTRPV4 expressed in BHK cells. Format: cell-based. As to conditions: at least one set of experimental runs; TRPV4 FLIPR assay; read-out: average IC50. The method in brief:
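BHK/AC9 cells transduced with BacMam human TRPV4 (MOI 78), 15,000 cells/well, cultured 24 h at 37 °C. Loaded with 2 μM Fluo-4 AM and 500 μM Brilliant Black in HBSS for 1–1.5 h at room temperature in the dark. Intracellular calcium influx monitored by fluorescence.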
In general, IC50 refers to the concentration that gives 50% inhibition. As to `N#Cc1ccc(S(=O)(=O)N2C[C@H](S(=O)(=O)c3ccc(Cl)cn3)[C@](O)(CO)C2)c(Cl)c1` [Example 1, 3-chloro-4-(((3R,4S)-4-((5-chloropyridin-2-yl)sulfonyl)-3-hydroxy-3-(hydroxymethyl)pyrrolidin-1-yl)sulfonyl)benzonitrile], the IC50 was found to be 5 nM.

The same assay, now with this note: inhibition of Agonist Compound (EC80)-induced calcium signal; BHK/AC9 cells expressing human TRPV4; read-out: IC50.
For `O=S(=O)(c1ccc(C(F)(F)F)cc1)[C@H]1CN(S(=O)(=O)c2ccc(C(F)(F)F)cc2Cl)C[C@@]1(O)CO` [Example 96, (3R,4S)-1-((2-chloro-4-(trifluoromethyl)phenyl)sulfonyl)-3-(hydroxymethyl)-4-((4-(trifluoromethyl)phenyl)sulfonyl)pyrrolidin-3-ol], the IC50 lay within 10 to 100 nM.

Regarding `O=S(=O)(c1cnc(C(F)(F)F)nc1)[C@H]1CN(S(=O)(=O)c2ccc(Cl)cc2Cl)C[C@@]1(O)CO` [Example 108, (3R,4S)-1-((2,4-dichlorophenyl)sulfonyl)-3-(hydroxymethyl)-4-((2-(trifluoromethyl)pyrimidin-5-yl)sulfonyl)pyrrolidin-3-ol], the IC50 was 10 to 100 nM.

For `N#Cc1ccc(S(=O)(=O)[C@H]2CN(S(=O)(=O)c3ccc(CF)cc3Cl)C[C@@]2(O)CO)cc1` [Example 44, 4-(((3S,4R)-1-((2-chloro-4-(fluoromethyl)phenyl)sulfonyl)-4-hydroxy-4-(hydroxymethyl)pyrrolidin-3-yl)sulfonyl)benzonitrile], the IC50 lay in the range of 10 to 100 nM.

For the compound `CCOc1cc(C#N)ccc1S(=O)(=O)N1C[C@H](S(=O)(=O)c2ccc(Cl)cc2)[C@](O)(CO)C1` [Example 49, 4-(((3R,4S)-4-((4-chlorophenyl)sulfonyl)-3-hydroxy-3-(hydroxymethyl)pyrrolidin-1-yl)sulfonyl)-3-ethoxybenzonitrile], the IC50 was in the range of 10 to 100 nM.

Turning to `O=S(=O)(c1ccc(Cl)cc1)[C@H]1CN(S(=O)(=O)c2ccc(C(F)(F)F)cc2Cl)C[C@@]1(O)CO` [Example 97, (3R,4S)-1-((2-chloro-4-(trifluoromethyl)phenyl)sulfonyl)-4-((4-chlorophenyl)sulfonyl)-3-(hydroxymethyl)pyrrolidin-3-ol], the IC50 was 10 to 100 nM.

With `COc1cc(Br)ccc1S(=O)(=O)N1C[C@H](S(=O)(=O)c2ccc(C#N)cc2)[C@](O)(CO)C1` [Example 52, 4-(((3S,4R)-1-((4-bromo-2-methoxyphenyl)sulfonyl)-4-hydroxy-4-(hydroxymethyl)pyrrolidin-3-yl)sulfonyl)benzonitrile], the concentration for half-maximal inhibition (IC50) was 10 to 100 nM.

In the case of `N#Cc1ccc(S(=O)(=O)N2C[C@H](S(=O)(=O)c3cnc(C(F)(F)F)nc3)[C@](O)(CO)C2)c(Cl)c1` [Example 112, 3-chloro-4-(((3R,4S)-3-hydroxy-3-(hydroxymethyl)-4-((2-(trifluoromethyl)pyrimidin-5-yl)sulfonyl)pyrrolidin-1-yl)sulfonyl)benzonitrile], the concentration for half-maximal inhibition (IC50) was 10 to 100 nM.

With `N#Cc1ccc(S(=O)(=O)N2C[C@H](S(=O)(=O)c3ccc(Cl)cn3)[C@](O)(CO)C2)c(Cl)c1` [Example 1, 3-chloro-4-(((3R,4S)-4-((5-chloropyridin-2-yl)sulfonyl)-3-hydroxy-3-(hydroxymethyl)pyrrolidin-1-yl)sulfonyl)benzonitrile], the IC50 lay within 0.1 to 10 nM.

As to `N#Cc1ccc(S(=O)(=O)N2C[C@H](S(=O)(=O)c3ccc(Cl)cc3)[C@](O)(CO)C2)c(Cl)c1` [Example 2, 3-chloro-4-(((3R,4S)-4-((4-chlorophenyl)sulfonyl)-3-hydroxy-3-(hydroxymethyl)pyrrolidin-1-yl)sulfonyl)benzonitrile], the IC50 lay within 0.1 to 10 nM.

As to `Cc1cc(C(F)(F)F)ccc1S(=O)(=O)N1C[C@H](S(=O)(=O)c2ccc(C#N)cc2)[C@](O)(CO)C1` [Example 28, 4-(((3S,4R)-4-hydroxy-4-(hydroxymethyl)-1-((2-methyl-4-(trifluoromethyl)phenyl)sulfonyl)pyrrolidin-3-yl)sulfonyl)benzonitrile], the concentration for half-maximal inhibition (IC50) lay in the range of 10 to 100 nM.

`Cc1cc(S(=O)(=O)[C@H]2CN(S(=O)(=O)c3ccc(C(F)(F)F)cc3Cl)C[C@@]2(O)CO)ccc1C#N` [Example 100, 4-(((3S,4R)-1-((2-chloro-4-(trifluoromethyl)phenyl)sulfonyl)-4-hydroxy-4-(hydroxymethyl)pyrrolidin-3-yl)sulfonyl)-2-methylbenzonitrile]: the IC50 was in the range of 10 to 100 nM.
